Measured values published in ChEMBL document CHEMBL4177632.

Columns and labels:
[1] = system: CCOC(=O)N1CCc2c(c3cc(OC)ccc3n2CC(=O)O)C1; test: Inhibition of recombinant human AKR1B1 assessed as Km for D,L-glyceraldehyde substrate at 80 nM (reference value: 0.065+/- 0.003 […])
[2] = system: CCOC(=O)N1CCc2c(c3cc(OC)ccc3n2CC(=O)O)C1; test: Inhibition of recombinant human AKR1B1 assessed as Km for D,L-glyceraldehyde substrate at 120 nM (reference value: 0.065+/- 0.003 […])
[3] = species: Rattus norvegicus; test: Selectivity index, ratio of IC50 for ALR1 in Wistar rat kidney to IC50 for ALR2 in Wistar rat eye lens
[4] = target: Aldo-keto reductase family 1 member B1 (Rattus norvegicus) (UniProt P07943); test: Inhibition of ALR2 in Wistar rat lens assessed as reduction in glucose induced-sorbitol accumulation by measuring sorbitol level at 0.1 uM preincubated for 30 mins followed by glucose addition measured after 3 hrs by resazurin dye based fluorescence assay (reference value: 803.6 +/- 104.6 nmol/g)
[5] = target: Aldo-keto reductase family 1 member B1 (Rattus norvegicus) (UniProt P07943); test: Inhibition of ALR2 in Wistar rat lens assessed as reduction in glucose induced-sorbitol accumulation by measuring sorbitol level at 1 uM preincubated for 30 mins followed by glucose addition measured after 3 hrs by resazurin dye based fluorescence assay (reference value: 803.6 +/- 104.6 nmol/g)
[6] = target: Aldo-keto reductase family 1 member B1 (Rattus norvegicus) (UniProt P07943); test: Inhibition of ALR2 in Wistar rat lens assessed as reduction in glucose induced-sorbitol accumulation by measuring sorbitol level at 100 uM preincubated for 30 mins followed by glucose addition measured after 3 hrs by resazurin dye based fluorescence assay (reference value: 803.6 +/- 104.6 nmol/g)
[7] = target: Aldo-keto reductase family 1 member B1 (Rattus norvegicus) (UniProt P07943); test: Inhibition of ALR2 in Wistar rat lens assessed as reduction in glucose induced-sorbitol accumulation by measuring sorbitol level preincubated for 30 mins followed by glucose addition measured after 3 hrs by resazurin dye based fluorescence assay

For “Aldo-keto reductase family 1 member B1 (Homo sapiens) (from UniProt P15121)”, the Km [1] was 36 µM and the Km [2] was 22 µM.

In the case of CCOC(=O)N1CCc2c(c3cc(OC)ccc3n2CC(=O)O)C1, the Ratio IC50 [3] is reported as 792, the Activity [4] is reported as 657 nmol/g and the Activity [5] is reported as 440 nmol/g. The Activity [6] was 249 nmol/g and the inhibition [7] was “Dose-dependent effect”.

CC(=O)N1CCc2c(c3ccccc3n2CC(=O)O)C1 was tested, and the Ratio IC50 [3] was 1070, the Activity [4] was 756 nmol/g and the Activity [5] was 631 nmol/g. For the same compound, the Activity [6] was 184 nmol/g and the inhibition [7] was “Dose-dependent effect”.

Compound Cc1c(C=O)c2ccccc2n1CC(=O)O has a Ratio IC50 [3] of 35.

With O=C(O)Cn1c2c(c3ccccc31)CN(C(=O)C1CC1)CC2 the Ratio IC50 [3] was 131.

With CCOC(=O)N1CCc2c(c3cc(C(=O)O)ccc3n2CC(=O)O)C1 the Ratio IC50 [3] was 381.

CC(=O)c1c(C)n(CC(=O)O)c2ccccc12 was tested, and the Ratio IC50 [3] was 66.
